# Source: patent US20250332081A1, “A Composition Against Osmotic Stress” (ELC Management LLC, priority 2022, published 2025)
# Test system: Normal Human Epidermal Keratinocytes (NHEK)
# Experiment: Hyper-osmotic stress model in NHEKs: cell protection (alamarBlue viability) and combination index
# Type: cell-based
# Details: 48 hrs, hyper-osmotic stress 450 mOsm
# Method: 1.2 g betaine (RDS 51-6709) was dissolved in 100 ml water with magnetic stirring for complete dissolution (Stock concentration 1.2%). 0.5 g Roselle extract (Hibiscus Sabdariffa Extract, Lucas Meyer Cosmetics Company) was dissolved in 10 mL water to achieve 5% stock solution. Then the solutions were filtrated with 0.22 um filter to keep sterile.
# Normal Human Epidermal Keratinocytes (NHEK, FC-0007) purchased from Lifeline Cell Technology were incubated at 37° C., 95% humidity and 5% CO2 in keratinocyte cell culture medium (DermaLife K Keratinocyte Medium Complete Kit, LL-0007, Lifeline cell technology) supplemented with growth factors and 1% Penicillin/Streptomycin (Thermo Fischer, Waltham, MA, USA). Cells were passaged upon reaching 80% confluency.
# NHEKs were plated in 96-well plates at 4,000/well density. After 24 h of incubation, the cells would have reached ˜80% confluency. 4.38 mg/mL NaCL was added in the culture media to achieve 450 osmolarity, on top of a baseline ˜300 mOsm.
# On day 1, NHEKs were seeded with culture medium (DermaLife K Keratinocyte Medium Complete Kit) in a 96-well plate at 3,000 cells/well. After 24 h adherence, a 2-active combination experiment was carried out in vitro. 21 data points were used for dose and effect, including 4 concentrations for betaine, 7 concentrations for roselle extract and their combination as below (Table 1). Cells were treated with the combination of these actives for 48 hrs (Separately diluted with cell culture medium, followed by mixing together to treat cells). Then cells were washed with Dulbecco's phosphate buffered saline (DPBS) twice, and then incubated in medium with 10% alamarBlue™ Cell Viability Reagent (Thermo Fisher, Waltham, MA, USA) for 120 minutes. The incubated plates were measured for fluorescence using a Perkin Elmer plate reader (VICTOR Nivo), at Ex 530 nm/Em 615 nm. The value are recorded as RFU value.
# The protective effect can be determined by Cell viability ratio (%) and Cell protection rate (%) as follows.
# According to the theory proposed by Chou and Talalay (TING-CHAO CHOU. Theoretical Basis, Experimental Design, and Computerized Simulation of Synergism and Antagonism in Drug Combination Studies. Pharmacol Rev 58:621-681, 2006), the level of synergism can be typically measured and quantified by the drug combination index (CI, a quantitative measure of drug combination effects) from experimental dose-response data. The concentration of each compound, the protection ratio of each compound or the combo of these two compounds data were input into computer for automated analysis using CalcuSyn software. […]
# Experiments were conducted at four levels of betaine and seven levels of roselle extract. […] Synergy value is classified based on the calculated combination index.
compound,measurement,setting,value
"C[N+](C)(C)CC(=O)[O-] [Betaine, trimethylglycine]",Protective Ratio (%),betaine 0.03% alone,8.924%
same,Protective Ratio (%),betaine 0.06% alone,19.658%
same,Protective Ratio (%),betaine 0.09% alone,15.259%
same,Protective Ratio (%),betaine 0.1% alone,17.451%
